Source: patent US20250134887A1, “METHODS OF TREATING PROSTATE CANCER” (AstraZeneca AB, priority 2022, published 2025)

Test system: patients with mCRPC
Test: PROpel (NCT03732820) double-blind randomized phase III trial: efficacy and patient-reported outcomes
Format: in vivo, human
From the text: The primary objective was efficacy as assessed by investigator-assessed imaging-based progression-free survival.
Patient population. Eligible patients were 18 years of age (or 19 years of age in South Korea) and had histologically or cytologically confirmed prostate adenocarcinoma with at least one documented metastatic lesion on either a bone scan, computed tomography, or magnetic resonance imaging scan. […] Docetaxel during neoadjuvant/adjuvant treatment for localized prostate cancer and the metastatic hormone-sensitive (mHSPC) stage of disease was permitted, as long as no signs of failure or disease progression occurred during or immediately after such treatment. Prior to mCRPC stage, treatment with second-generation antiandrogen agents (except abiraterone) without PSA progression/clinical progression/radiographic progression during treatment was allowed, provided the treatment was stopped at least 12 months before randomisation.
Trial design and interventions. This was a double-blind, placebo-controlled, phase Ill trial. Eligible patients were randomized (1:1) to treatment with abiraterone acetate (1000 mg once daily) in combination with either olaparib (300 mg twice daily) or placebo. All patients received prednisone or prednisolone (5 mg twice daily) as per the abiraterone acetate label requirement. Randomization was stratified by distant metastasis type (bone only/visceral/other) at baseline and by docetaxel treatment at the mHSPC stage of disease (yes or no). Study treatment continued until objective imaging-based progressive disease assessed by investigator (using Response Evaluation Criteria in Solid Tumors [RECIST 1.1] for soft tissue lesions and Prostate Cancer Working Group-3 [PCWG-3] criteria for bone lesions), unacceptable toxicity, or withdrawal of consent. Following objective disease progression, further treatment options were at the discretion of the investigator. […] Crossover from placebo to receive olaparib in combination with abiraterone acetate was not allowed.
Endpoints. The primary endpoint was imaging-based progression-free survival or death from any cause in the absence of disease progression. Sensitivity analysis by blinded independent central review and exploratory subgroup analysis of investigator-assessed imaging-based progression-free survival to assess consistency of treatment effect across potential prognostic factors were prespecified. Subgroups included HRRm status.
A key secondary endpoint was overall survival. Other secondary endpoints included time to first subsequent therapy or death (TFST), time to second progression or death (PFS2) and patient-reported outcomes. Further exploratory endpoints were objective response rate (ORR), prostate-specific antigen (PSA) response rate and time to PSA progression.
Statistical analysis. Efficacy was analyzed for the intention-to-treat population and safety was analyzed for all patients who received any amount of abiraterone acetate, olaparib, or placebo.
The first planned interim analysis of the primary endpoint of imaging-based progression-free survival is reported in this example. Imaging-based progression-free survival will be reported subsequently at a second data cutoff. Overall survival will be formally tested at all points, including a third data cutoff.
With a sample size of 796 patients, the first interim analysis was planned to occur when there had been approximately 379 progression or death events (47.6% maturity), to provide 94.1% power at a one-sided alpha of 0.014 to show a statistically significant difference in imaging-based progression-free survival between the trial arms, assuming a hazard ratio for progression or death of 0.68.
A multiple testing procedure controlled the overall one-sided type 1 error rate of 2.5%.

[1] = rPFS investigator assessment, FAS, All patients
[2] = rPFS, subgroup Age at randomisation: <65 years
[3] = rPFS, subgroup Age at randomisation: ≥65 years
[4] = rPFS, subgroup Docetaxel treatment at mHSPC stage
[5] = rPFS, subgroup HRRm Unknown, ctDNA test
[6] = rPFS, subgroup HRRm Unknown, tumour tissue test
[7] = rPFS, subgroup HRRm, ctDNA test (FoundationOne Liquid CDx)
[8] = rPFS, subgroup HRRm, tumour tissue test (FoundationOne CDx)
[9] = rPFS, subgroup No docetaxel treatment at mHSPC stage
[10] = rPFS, subgroup Non-HRRm, ctDNA test
[11] = rPFS, subgroup Non-HRRm, tumour tissue test
[12] = rPFS, subgroup Site of distant metastases: Bone only
[13] = rPFS, subgroup Site of distant metastases: Other
[14] = rPFS, subgroup Site of distant metastases: Visceral

CC(=O)O[C@H]1CC[C@@]2(C)C(=CC[C@@H]3[C@@H]2CC[C@]2(C)C(c4cccnc4)=CC[C@@H]32)C1 [abiraterone acetate and placebo, (3β)-17-(3-pyridinyl) androsta-5,16-dien-3-yl acetate]
second progression or death events (PFS2, number of events): 94 | patients who received a first subsequent therapy (TFST, number of patients): 221 | Confirmed PSA response (human, in vivo): 69.2% | Median time to PSA progression (human, in vivo): 12.0 months | median imaging-based progression-free survival by investigator assessment (intention-to-treat, first interim analysis, data cutoff Jul. 30, 2021): 16.6 months | Median rPFS (investigator assessment, FAS, All patients): 16.59 months | progression or death events, blinded independent central review (number of events): 218 | progression or death events, investigator assessment (number of events): 226 | ORR, number of patients with response (of 161 patients (olaparib arm) / of 160 patients (placebo arm) with measurable disease at baseline): 77 | deaths (overall survival analysis, number of deaths): 121 | ORR (patients with measurable disease at baseline): 48.1% | median imaging-based progression-free survival by blinded independent central review (prespecified sensitivity analysis): 16.4 months | Number of events/total number of patients [1]: 226/397 | Number of events/total number of patients (%) [1]: (56.9) % | Number of events/total number of patients [2]: 59/97 | Number of events/total number of patients (%) [2]: (60.8) % | Number of events/total number of patients [3]: 167/300 | Number of events/total number of patients (%) [3]: (55.7) % | Number of events/total number of patients [4]: 56/94 | Number of events/total number of patients (%) [4]: (59.6) % | Number of events/total number of patients [5]: 13/30 | Number of events/total number of patients (%) [5]: (43.3) % | Number of events/total number of patients [6]: 76/131 | Number of events/total number of patients (%) [6]: (58.0) % | Number of events/total number of patients [7]: 66/100 | Number of events/total number of patients (%) [7]: (66.0) % | Number of events/total number of patients [8]: 37/56 | Number of events/total number of patients (%) [8]: (66.1) % | Number of events/total number of patients [9]: 170/303 | Number of events/total number of patients (%) [9]: (56.1) % | Number of events/total number of patients [10]: 147/267 | Number of events/total number of patients (%) [10]: (55.1) % | Number of events/total number of patients [11]: 113/210 | Number of events/total number of patients (%) [11]: (53.8) % | Number of events/total number of patients [12]: 102/217 | Number of events/total number of patients (%) [12]: (47.0) % | Number of events/total number of patients [13]: 84/128 | Number of events/total number of patients (%) [13]: (65.6) % | Number of events/total number of patients [14]: 40/52 | Number of events/total number of patients (%) [14]: (76.9) % | Median rPFS (subgroup Age at randomisation: <65 years): 16.36 months | Median rPFS (subgroup Age at randomisation: ≥65 years): 16.66 months | Median rPFS (subgroup Docetaxel treatment at mHSPC stage): 13.83 months | Median rPFS (subgroup HRRm Unknown, tumour tissue test): 16.39 months | Median rPFS (subgroup HRRm, ctDNA test (FoundationOne Liquid CDx)): 13.63 months | Median rPFS (subgroup HRRm, tumour tissue test (FoundationOne CDx)): 16.62 months | Median rPFS (subgroup No docetaxel treatment at mHSPC stage): 16.82 months | Median rPFS (subgroup Non-HRRm, ctDNA test): 18.96 months | Median rPFS (subgroup Non-HRRm, tumour tissue test): 16.59 months | Median rPFS (subgroup Site of distant metastases: Bone only): 22.18 months | Median rPFS (subgroup Site of distant metastases: Other): 13.70 months | Median rPFS (subgroup Site of distant metastases: Visceral): 10.91 months
